{"source": "patent US20060167226A1", "about": "“Mutations of voltage-gated ion channnels that allow them to express a voltage-independent phenotype and an improved method to use the same” (Cardiome Pharma Corp., priority 2002, published 2006)", "molecular_target": "T1, Kv1.5m channels (Homo sapiens, UniProt P22460, P513D/R400Q/R403Q/R409Q)", "T1 construct": "The coding region of the human gene for Kv1.5 was subcloned into pYC2 (Invitrogen) as an approximately 2 kb HindIII-NotI fragment; expressed in transfected cells; host or cells: Saccharomyces cerevisiae trk1 trk2 strain WΔ3, plasmid pYC2 (GAL1 promoter) or a PGK promoter vector", "T1 sequence (P22460 whole entry R400Q/R403Q/R409Q/P513D, the tested form may be a part)": "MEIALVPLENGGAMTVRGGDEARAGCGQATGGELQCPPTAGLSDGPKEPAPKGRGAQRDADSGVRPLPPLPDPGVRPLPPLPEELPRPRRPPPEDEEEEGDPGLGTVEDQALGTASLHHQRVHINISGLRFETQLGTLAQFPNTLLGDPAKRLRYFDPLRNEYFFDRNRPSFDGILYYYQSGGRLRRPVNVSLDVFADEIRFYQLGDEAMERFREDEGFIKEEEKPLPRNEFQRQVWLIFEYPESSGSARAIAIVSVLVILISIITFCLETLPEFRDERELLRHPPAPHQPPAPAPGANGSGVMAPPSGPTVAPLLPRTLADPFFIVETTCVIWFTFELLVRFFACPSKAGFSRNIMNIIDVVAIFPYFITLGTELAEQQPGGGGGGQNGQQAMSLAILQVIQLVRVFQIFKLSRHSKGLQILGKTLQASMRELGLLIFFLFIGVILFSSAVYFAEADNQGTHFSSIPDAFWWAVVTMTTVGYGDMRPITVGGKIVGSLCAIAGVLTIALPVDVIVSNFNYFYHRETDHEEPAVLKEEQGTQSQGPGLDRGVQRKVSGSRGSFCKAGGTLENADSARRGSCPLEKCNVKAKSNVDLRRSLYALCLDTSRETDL", "test": "Liquid culture growth assay of trk1 trk2 yeast (WΔ3) expressing Kv1.5m in low potassium media", "type": "cell-based", "settings": "for OD600 (Batch A) / OD600 (Batch B): QPD WΔ3 transformants, liquid culture; for Block of growth of the trk1 trk2 strain expressing Kv1.5m on low potassium: low potassium media", "excerpt": "Expression of the cloned inserts is under the control of either the constitutively active PGK promoter or the inducible GAL1 promoter. The latter requires growth in/on media containing galactose as sole carbon source. The screening method involves adding the compound to be screened to the growth media of trk1 trk2 yeast expressing the modified potassium channel and determining whether the yeast's growth is inhibited. The tested compound may be incorporated in liquid or solid growth media or added ectopically to solid growth media.\nOur yeast strain, when expressing the mutant Kv1.5 channel, is capable of consistent growth on as little as 0.5 mM potassium. Very few pseudorevertants are capable of growth at this potassium concentration; the vast majority of liquid cultures of the parent strain show absolutely no growth even after more than 24 hours culture. When expressing the mutant Kv1.5 channel, growth is robust and can be blocked by known Kv1.5 channel blockers.\nDetailed Description of the Methods Required for a Liquid Culture Media Assay of Kv1.5:\nLow salt media was made according to Wickerham, L. J. (1951) (Taxonomy of Yeasts. United States Department of Agriculture Technical Bulletin No. 1029), except that the final potassium phosphate concentration was 0.5 mM.\n1. Streak out WΔ3 and Kv1.5m transformed WΔ3 (“Kv1.5m”) culture from frozen stock onto YPD+100 mM K+ and YNB+100 mM K+, ura-agar media plates, respectively, for fresh colonies.\n2. The day before doing the drug assay, use the fresh colonies to grow overnight cultures of WΔ3 in liquid YPD+100 mM K+ media, and grow “Kv1.5 m” in liquid YNB+100 mM K+, ura-media.\n3. Collect the overnight yeast cells and wash them in sterile distilled water. Resuspend WΔ3 cells in the same volume of LS+100 mM K++ uracil media, and resuspend “Kv1.5 m” cells in the same volume of LS+0.5 mM K+, ura-media. These are the seed cultures for the drug assay.\n4. In Falcon 2059 tubes, prepare various concentrations of drugs in LS+0.5 mM K+, ura-media or LS+100 mM K++ uracil media, and also set up solvent controls for each drug concentrations used. Here is an example:\nDrug X stock solution (10 mM) is dissoved in 0.5% Tween-20. Final concentrations that we test are 1 mM, 0.1 mM, and 0.01 mM.\nThen 250 micro liter of the seed culture of “Kv1.5m” from step 3 is inoculated into each tube.\n5. Measure the starting OD600 by taking out 0.1 ml of the sample from each tube and diluting […] for measuring. Grow cultures at […] shaker at 300 rpm.\n6. Get 0.1 ml of samples from each tube and measure their OD600 at 2 hr, 4 hr, 6 hr, 8 hr, and 24 hr."}
{"smiles": "Nc1ccncc1", "note": "[Compound 4-AP, 4-aminopyridine]", "values": [{"measurement": "inhibition at 1000 µM", "setting": "1 mM 4-AP, both batches, read-out: reduction at OD600 (inhibition of yeast growth)", "value": 50, "unit": "%"}, {"measurement": "OD600 (Batch A)", "setting": "LS + 0.5 mM K+ + 0.1 mM 4-AP", "value": 2.55}, {"measurement": "OD600 (Batch B)", "setting": "LS + 0.5 mM K+ + 0.1 mM 4-AP", "value": 2.5}, {"measurement": "OD600 (Batch A)", "setting": "LS + 0.5 mM K+ + 1 mM 4-AP", "value": 1.11}, {"measurement": "OD600 (Batch B)", "setting": "LS + 0.5 mM K+ + 1 mM 4-AP", "value": 1.11}, {"measurement": "Block of growth of the trk1 trk2 strain expressing Kv1.5m on low potassium", "value": "can block the Kv1.5m channels"}, {"measurement": "Block of growth of the trk1 trk2 strain expressing Kv1.5m on low potassium", "setting": "listed as 4-aminopyridine", "value": "could be blocked"}]}
